The first assay deals with T1, human ACC1 (acetyl-coenzyme A carboxylase alpha transcript variant 1) (Homo sapiens, UniProt Q13085).
T1 construct: FLAG (C); made in house; host or cells: baculovirus-infected insect cells (Hi5)
Nature of the assay: Human ACC1 enzyme assay, Assay B1 (ADP-Glo). Type of assay: biochemical.
Details: not given
The compound `O=C1C(c2cc(-c3ccc(Cl)c(Cl)c3)ccc2Cl)C(=O)N2CCOCCN12` [8-10, 8-(3′,4,4′-trichlorobiphenyl-3-yl)tetrahydro-7H-pyrazolo[1,2-d][1,4,5]oxadiazepine-7,9(8H)-dione] had an IC50 of 2350 nM. Compound `Cc1ccc(-c2cc(F)c(F)c(F)c2)cc1C1=C(O)C2(CCOCC2)NC1=O` [1-36, 4-hydroxy-3-(3′,4′,5′-trifluoro-4-methylbiphenyl-3-yl)-8-oxa-1-azaspiro[4.5]dec-3-en-2-one] gave an IC50 of 1500 nM. On the same count and under the same terms, the result for `Cc1ccc(-c2ccc(Cl)cc2)cc1C1=C(O)CC(C)CC1=O` (stereo not shown) [7-1, 2-(4′-chloro-4-methylbiphenyl-3-yl)-3-hydroxy-5-methylcyclohex-2-en-1-one] reads 932 nM; that for `COC1CCC2(CC1)NC(=O)C(c1cc(-c3cc(F)ccc3F)ccc1C)=C2O` (stereo not shown) [1-80, 3-(2′,5′-difluoro-4-methylbiphenyl-3-yl)-4-hydroxy-8-methoxy-1-azaspiro[4.5]dec-3-en-2-one], 2180 nM; that for `CO[C@H]1CC[C@]2(CC1)NC(=O)C(c1cc(-c3ccc(F)cc3)ccc1Cl)=C2O` [1-44, (5s,8s)-3-(4-chloro-4′-fluorobiphenyl-3-yl)-4-hydroxy-8-methoxy-1-azaspiro[4.5]dec-3-en-2-one], 1700 nM.

Regarding `COC1CCCC2(C1)OC(=O)C(c1cc(-c3ccc(Cl)cc3)ccc1Cl)=C2O` (stereo not shown) [2-13, 3-(4,4′-dichlorobiphenyl-3-yl)-4-hydroxy-7-methoxy-1-oxaspiro[4.5]dec-3-en-2-one], half-maximal inhibition (IC50) required 1020 nM. Take `O=C1C(c2cc(-c3ccc(Cl)cc3Cl)ccc2Cl)C(=O)N2CCOCCN12` [8-9, 8-(2′,4,4′-trichlorobiphenyl-3-yl)tetrahydro-7H-pyrazolo[1,2-d][1,4,5]oxadiazepine-7,9(8H)-dione]: the IC50 came out at 682 nM.

Still in this assay, the particulars now being: Assay B1, ADP-Glo; read-out: ACC 1 (=B1) IC50.
For `COC1CCC2(CC1)OC(=O)C(c1cc(-c3ccccc3Cl)ccc1C)=C2O` (stereo not shown) [2-7, 3-(2′-chloro-4-methylbiphenyl-3-yl)-4-hydroxy-8-methoxy-1-oxaspiro[4.5]dec-3-en-2-one], the IC50 turned out to be 2710 nM.

`O=C1OC2(CCCC2)C(O)=C1c1cc(-c2cc(F)c(F)c(F)c2)ccc1Cl` [2-24, 3-(4-chloro-3′,4′,5′-trifluorobiphenyl-3-yl)-4-hydroxy-1-oxaspiro[4.4]non-3-en-2-one]: the IC50 is 2090 nM.

Staying with this assay, now noted: Assay B1; read-out: ACC 1 (=B1) IC50.
On to `O=C1NC2(CCOCC2)C(O)=C1c1cc(-c2cc(F)c(F)c(F)c2)ccc1Cl` [1-38, 3-(4-chloro-3′,4′,5′-trifluorobiphenyl-3-yl)-4-hydroxy-8-oxa-1-azaspiro[4.5]dec-3-en-2-one], for which the IC50 was determined as 747 nM. Take `CN1C(=O)C(c2cc(-c3ccc(Cl)cc3)ccc2Cl)C(=O)N1C` [8-15, 4-(4,4′-dichlorobiphenyl-3-yl)-1,2-dimethyl-1H-pyrazole-3,5(2H,4H)-dione]: the IC50 was determined as 5600 nM. The same measure, in the same setting: then `Cc1ccc(-c2ccc(F)cc2F)cc1C1C(=O)N2CCOCCN2C1=O` [8-5, 8-(2′,4′-difluoro-4-methylbiphenyl-3-yl)tetrahydro-7H-pyrazolo[1,2-d][1,4,5]oxadiazepine-7,9(8H)-dione], with 6940 nM. On to `O=C1C(c2cc(-c3ccc(Cl)cc3)ccc2Cl)C(=O)N2C3CCC(C3)N12` (stereo not shown) [8-17, 2-(4,4′-dichlorobiphenyl-3-yl)tetrahydro-1H-5,8-methanopyrazolo[1,2-a]pyridazine-1,3(2H)-dione], for which the IC50 is 1450 nM.

Regarding `Cc1ccc(-c2ccc(Cl)cc2)cc1-c1c(O)c2ccccc2[nH]c1=O` [9-5, 3-(4′-chloro-4-methylbiphenyl-3-yl)-4-hydroxyquinolin-2(1H)-one], the half-inhibitory concentration (IC50) amounted to 661 nM. With `Cc1ccc(-c2ccc(C(F)(F)F)cc2)cc1-c1c(O)c2ccc(F)cc2[nH]c1=O` [9-10], the IC50 was determined as 1410 nM. On the same count and under the same terms, then `Cc1ccc(-c2ccc(C)c(C3=C(O)C4(CCOCC4)NC3=O)c2)cc1` [1-15, 3-(4,4′-dimethylbiphenyl-3-yl)-4-hydroxy-8-oxa-1-azaspiro[4.5]dec-3-en-2-one], with 522 nM.

These data come from patent US20130040935A1, “CYCLIC KETO-ENOLS FOR THERAPY” (BAYER INTELLECTUAL PROPERTY GMBH, priority 2010, published 2013).
